Data from ChEMBL document CHEMBL1151283, “Bis(bibenzyls) from liverworts inhibit lipopolysaccharide-induced inducible NOS in RAW 264.7 cells: a study of structure-activity relationships and molecular mechanism” (J Nat Prod, 2005).
Active and inactive are the calls of the source. The rule behind the calls is not given here.

What follows are compounds tested on RAW264.7 (assay: Inhibition of iNOS mRNA expression in mouse RAW264.7 cells […] by RT-PCR analysis).
Format: functional, cell-based

SMILES | Activity
Oc1cc2cc(c1O)Oc1ccc(cc1)CCc1cccc(O)c1Oc1cccc(c1)CC2 [MARCHANTIN A] | inactive

What follows are compounds tested on RAW264.7 (assay: Inhibition of LPS-induced iNOS mRNA expression in mouse RAW264.7 cells […] by RT-PCR analysis).
Format: functional, cell-based

SMILES | Activity
Oc1cc2cc(c1O)Oc1ccc(cc1)CCc1cccc(O)c1Oc1cccc(c1)CC2 [MARCHANTIN A] | Dose-dependent effect

These compounds were tested on RAW264.7 (assay: Inhibition of LPS-induced nitric oxide production in mouse RAW264.7 cells pretreated 1 hr before LPS challenge after 24 hrs by Griess reagent method).
Format: functional, cell-based

IC50 [µM] | SMILES
2.5 | COc1ccc2c(c1)CCc1ccc(cc1)Oc1cc(ccc1O)CCc1ccc-2c(O)c1 [RICCARDIN A]
> 100 | Oc1ccc2c(c1)CCc1ccc(cc1)Oc1cc(ccc1O)CCc1ccc-2c(O)c1 [RICCARDI C]
14.3 | Oc1ccc2c(c1)CCc1ccc(O)c(c1)-c1cc(ccc1O)CCc1ccc-2c(O)c1 [ISOPLAGIOCHIN D]
9.07 | COc1cc2c(cc1O)-c1ccc(O)cc1CCc1cc(O)c(O)c(c1)Oc1ccc(cc1)CC2 [PLAGIOCHIN A]
15.3 | Oc1ccc2cc1Oc1ccc(cc1)CCc1cc(O)c(O)c(c1)Oc1cccc(c1)CC2 [MARCHANTIN H]
4.1 | Oc1cc2cc(c1O)Oc1ccc(cc1)CCc1ccc(O)c(O)c1Oc1cccc(c1)CC2 [MARCHANTIN B]
> 100 | Oc1ccc2cc1Oc1ccc(cc1)CCc1cccc(c1)Oc1c(O)cccc1CC2 [ISOMARCHANTIN C]
5 | COc1ccc2cc1Oc1ccc(cc1)CCc1cc(O)ccc1-c1ccc(cc1O)CC2 [RICCARDI F]
1.44 | Oc1cc2cc(c1O)Oc1ccc(cc1)CCc1cccc(O)c1Oc1cccc(c1)CC2 [MARCHANTIN A]

Continued, compound first:

SMILES | IC50 [µM]
COc1cccc(CCc2ccc(O)c(Oc3ccc(CCc4cccc(O)c4)cc3)c2)c1 | 49.9
Oc1ccc2c(c1)CCc1ccc(O)c(c1)-c1cc(ccc1O)/C=C\c1cccc(c1)O2 [ISOPLAGIOCHIN A] | > 100
Oc1ccc2cc1Oc1cccc(c1)CC(O)c1cc(O)c(O)c(c1)Oc1ccc(cc1)CC2 (stereo not given) [MARCHANTIN D] | 10.2
Oc1ccc2cc1-c1cc(ccc1O)CCc1c(ccc(O)c1O)Oc1cccc(c1)/C=C\2 [ISOPLAGIOCHIN B] | > 100
Oc1ccc2c(c1)/C=C/c1ccc(O)c(c1)Oc1ccc(cc1)CCc1cccc(c1)O2 [PTYCHANTOL A] | > 100
COc1cc2cc(c1OC)Oc1ccc(cc1)CCc1ccc(OC)c(OC)c1Oc1cccc(c1)CC2 [MARCHANTIN B TETRAMETHYL ETHER] | 42.5
Oc1cccc(CCc2ccc(Oc3cc(CCc4cccc(O)c4)cc(O)c3O)cc2)c1 [PERROTETTIN F] | 7.42
COc1cccc2c1Oc1cccc(c1)CCc1cc(OC)c(OC)c(c1)Oc1ccc(cc1)CC2 [MARCHANTIN A TRIMETHYL ETHER] | 42.5
COC1Cc2cccc(c2)Oc2c(O)cccc2CCc2ccc(cc2)Oc2cc1cc(O)c2O (stereo not given) [MARCHANTIN E] | 62.2
